According to PMC2804909 (Journal of medicinal chemistry, 2010):
No end group written: not given here.

B1: HiOASS-A (protein)
chain: MAIYADNSYSIGNTPLVRLKHFGHNGNVVVKIEGRNPSYSVKCRIGANMVWQAEKDGTLTKGKEIVDATSGNTGIALAYVAAARGYKITLTMPETMSLERKRLLCGLGVNLVLTEGAKGMKGAIAKAEEIVASDPSRYVMLKQFENPANPQIHRETTGPEIWKDTDGKVDVVVAGVGTGGSITGISRAIKLDFGKQITSVAVEPVESPVISQTLAGEEVKPGPHKIQGIGAGFIPKNLDLSIIDRVETVDSDTALATARRLMAEEGILAGISSGAAVAAADRLAKLPEFADKLIVVILPSASERYLSTALFEGIEG

Columns and labels:
[1] = molecular target: HiOASS-A (Haemophilus influenzae, UniProt P45040); experiment: biochemical
[2] = molecular target: T1, MNLNI (SAT C-terminal pentapeptide) (Haemophilus influenzae); experiment: fluorescence titration
T1 chain: MNLNI

Molecule | Kd [1] [mM] | Kd [2] [µM]
MNENI [MNENI] | ~7 | 
B1 |  | 44
